Assay results from PubChem BioAssay AID330 (DTP/NCI, 2004).
“And” between values parts separate entries of the source, which are not always exact repeats. Equal values may be shown once. Inconclusive results and toxic doses are left out.

Test system: P388 leukemia ip, CD2F1 mice, survival T/C
Assay: NCI In Vivo Anticancer Drug Screen. Data for tumor model P388 Leukemia (intraperitoneal) in CD2F1 (CDF1) mice
Details: endpoint: median survival time, higher = longer survival
Procedure, shortened: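 Mice carrying the transplanted tumor received test compound or vehicle. Survival was recorded in each group, and the value is the treated-group measurement divided by that of the vehicle-treated control group.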

[1] = dose: 60.0 mg/kg/injection, schedule: Q01DX005 (ip), vehicle: saline with Tween-80
[2] = dose: 120.0 mg/kg/injection, schedule: Q01DX005 (ip), vehicle: saline with Tween-80
[3] = dose: 240.0 mg/kg/injection, schedule: Q01DX005 (ip), vehicle: saline with Tween-80
[4] = dose: 50.0 mg/kg/injection, schedule: Q01DX009 (ip), vehicle: saline with Tween-80
[5] = dose: 100.0 mg/kg/injection, schedule: Q01DX009 (ip), vehicle: saline with Tween-80
[6] = dose: 200.0 mg/kg/injection, schedule: Q01DX009 (ip), vehicle: saline with Tween-80
[7] = dose: 200.0 mg/kg/injection, schedule: Q01DX009 (ip), vehicle: suspension in saline
[8] = dose: 50.0 mg/kg/injection, schedule: Q01DX005 (ip), vehicle: saline with Tween-80
[9] = dose: 200.0 mg/kg/injection, schedule: Q01DX005 (ip), vehicle: saline with Tween-80
[10] = dose: 50.0 mg/kg/injection, schedule: Q01DX009 (ip), vehicle: Klucel (hydroxypropylcellulose) (HPC)
[11] = dose: 100.0 mg/kg/injection, schedule: Q01DX009 (ip), vehicle: Klucel (hydroxypropylcellulose) (HPC)
[12] = dose: 200.0 mg/kg/injection, schedule: Q01DX009 (ip), vehicle: Klucel (hydroxypropylcellulose) (HPC)

In the case of `CC[C@@H](C)[C@@H]1NC(=O)C(NC(=O)C(CC(C)C)N(C)C(=O)C2CCCN2C(=O)C(C)O)C(C)OC(=O)C(Cc2ccc(OC)cc2)N(C)C(=O)C2CCCN2C(=O)C(CC(C)C)NC(=O)C(C)C(=O)C(C(C)C)OC(=O)C[C@H]1O` (some centres not stated), the T/C (dose: 0.03 mg/kg/injection, schedule: Q01DX009 (ip), vehicle: none) is reported as 171 % of control, the T/C (dose: 10.0 micrograms/kg/injection, schedule: Q01DX009 (ip), vehicle: distilled water + alcohol) is reported as 112 % of control and the T/C (dose: 20.0 micrograms/kg/injection, schedule: Q01DX009 (ip), vehicle: distilled water + alcohol) is reported as 112 % of control. The T/C (dose: 80.0 micrograms/kg/injection, schedule: Q01DX009 (ip), vehicle: distilled water + alcohol) was 155 % of control.
For `Cc1c([N+](=O)[O-])oc2cc3c(cc12)CCCC3`, the T/C [1] was 91 % of control, the T/C [2] was 93 % of control and the T/C [3] was 94 % of control.
`Cc1cc(C(=O)CSC(=S)SC(C)(C)C)ccc1Cl` was tested, and the T/C [1] was 100 % of control, the T/C [2] was 96 % of control and the T/C [3] was 90 % of control.
For `O=C(O)C(Cc1ccccc1[N+](=O)[O-])N1C(=O)c2ccccc2C1=O` (configuration not stated), the T/C [4] was 112 % of control, the T/C [5] was 92 % of control and the T/C [6] was 94 % of control. For the same compound, the T/C (dose: 400.0 mg/kg/injection, schedule: Q01DX009 (ip), vehicle: saline with Tween-80) was 100 % of control.
In the case of `C=C/C=C\CN(C)Cc1ccccc1`, the T/C (dose: 12.5 mg/kg/injection, schedule: Q01DX005 (ip), vehicle: saline) is reported as 99 % of control, the T/C (dose: 25.0 mg/kg/injection, schedule: Q01DX005 (ip), vehicle: saline) is reported as 105 % of control and the T/C (dose: 50.0 mg/kg/injection, schedule: Q01DX005 (ip), vehicle: saline) is reported as 106 % of control and 108 % of control. For the same compound, the T/C (dose: 100.0 mg/kg/injection, schedule: Q01DX005 (ip), vehicle: saline) was 101 % of control.
For `C=CCC(C(=O)OC)c1ccc(F)cc1` (configuration not stated), the T/C (dose: 0.06 mg/kg/injection, schedule: Q01DX009 (ip), vehicle: saline) was 111 % of control, the T/C (dose: 0.13 mg/kg/injection, schedule: Q01DX009 (ip), vehicle: saline) was 102 % of control and the T/C (dose: 0.25 mg/kg/injection, schedule: Q01DX009 (ip), vehicle: saline) was 101 % of control. For the same compound, the T/C (dose: 1.0 mg/kg/injection, schedule: Q01DX009 (ip), vehicle: saline) was 88 % of control.
For `O=C1/C(=C/c2ccccc2O)SC(=S)N1C1CC1`, the T/C [4] was 100 % of control, the T/C [5] was 90 % of control and the T/C [6] was 95 % of control.
With `OCCOCCCl` the T/C (dose: 100.0 mg/kg/injection, schedule: Q01DX009 (ip), vehicle: suspension in saline) was 96 % of control, the T/C [7] was 109 % of control and the T/C (dose: 400.0 mg/kg/injection, schedule: Q01DX009 (ip), vehicle: suspension in saline) was 110 % of control.
For `O=C1NN=C(c2ccccc2)SC1c1ccccc1` (configuration not stated), the T/C (dose: 12.5 mg/kg/injection, schedule: Q01DX005 (ip), vehicle: saline with Tween-80) was 93 % of control, the T/C (dose: 25.0 mg/kg/injection, schedule: Q01DX005 (ip), vehicle: saline with Tween-80) was 95 % of control and the T/C [8] was 90 % of control and 92 % of control. The T/C [9] was 90 % of control.
In the case of `CC(=O)OC(C)C(O)C(O)C(/C=C/C1CC=CC(=O)O1)OC(C)=O` (configuration not stated), the T/C (dose: 8.25 mg/kg/injection, schedule: Q01DX005 (ip), vehicle: Klucel (hydroxypropylcellulose) (HPC)) is reported as 108 % of control, the T/C (dose: 16.5 mg/kg/injection, schedule: Q01DX005 (ip), vehicle: Klucel (hydroxypropylcellulose) (HPC)) is reported as 104 % of control and the T/C (dose: 33.0 mg/kg/injection, schedule: Q01DX005 (ip), vehicle: Klucel (hydroxypropylcellulose) (HPC)) is reported as 104 % of control. The T/C (dose: 66.0 mg/kg/injection, schedule: Q01DX005 (ip), vehicle: Klucel (hydroxypropylcellulose) (HPC)) was 95 % of control.
For `COc1cc(/C=N/NS(=O)(=O)c2ccc(C)cc2)cc([N+](=O)[O-])c1O`, the T/C (dose: 3.12 mg/kg/injection, schedule: Q01DX009 (ip), vehicle: distilled water + Tween-80) was 87 % of control, the T/C (dose: 6.25 mg/kg/injection, schedule: Q01DX009 (ip), vehicle: distilled water + Tween-80) was 103 % of control and the T/C (dose: 12.5 mg/kg/injection, schedule: Q01DX009 (ip), vehicle: distilled water + Tween-80) was 104 % of control. For the same compound, the T/C (dose: 25.0 mg/kg/injection, schedule: Q01DX009 (ip), vehicle: distilled water + Tween-80) was 104 % of control, the T/C (dose: 25.0 mg/kg/injection, schedule: Q01DX009 (ip), vehicle: other) was 106 % of control and the T/C (dose: 50.0 mg/kg/injection, schedule: Q01DX009 (ip), vehicle: other) was 99 % of control. The T/C (dose: 100.0 mg/kg/injection, schedule: Q01DX009 (ip), vehicle: other) was 106 % of control, the T/C (dose: 200.0 mg/kg/injection, schedule: Q01DX009 (ip), vehicle: other) was 98 % of control and the T/C (dose: 400.0 mg/kg/injection, schedule: Q01DX009 (ip), vehicle: other) was 113 % of control.
`FC(F)(F)c1cccc(NC(=S)SCc2ccc(Cl)c(Cl)c2)c1` was tested, and the T/C (dose: 12.5 mg/kg/injection, schedule: Q01DX009 (ip), vehicle: saline) was 95 % of control, the T/C (dose: 25.0 mg/kg/injection, schedule: Q01DX009 (ip), vehicle: saline) was 89 % of control and the T/C (dose: 50.0 mg/kg/injection, schedule: Q01DX009 (ip), vehicle: saline) was 90 % of control. For the same compound, the T/C (dose: 50.0 mg/kg/injection, schedule: Q01DX009 (ip), vehicle: suspension in saline) was 89 % of control, the T/C (dose: 100.0 mg/kg/injection, schedule: Q01DX009 (ip), vehicle: saline) was 90 % of control and the T/C (dose: 200.0 mg/kg/injection, schedule: Q01DX009 (ip), vehicle: saline) was 100 % of control. For the same compound, the T/C [7] was 97 % of control.
For `COc1cccc2cc(-c3c[nH]c4ccccc34)c(=O)oc12`, the T/C [1] was 105 % of control, the T/C [2] was 98 % of control and the T/C [3] was 95 % of control.
For `CCC1C(C#N)C(=O)NC(=O)C1C#N` (configuration not stated), the T/C [10] was 100 % of control, the T/C [11] was 95 % of control and the T/C [12] was 95 % of control.
With `CC(C)C(OCc1ccccc1)C(=O)O` (configuration not stated) the T/C (dose: 50.0 mg/kg/injection, schedule: Q01DX009 (ip), vehicle: alcohol) was 88 % of control, the T/C (dose: 100.0 mg/kg/injection, schedule: Q01DX009 (ip), vehicle: alcohol) was 98 % of control and the T/C (dose: 200.0 mg/kg/injection, schedule: Q01DX009 (ip), vehicle: alcohol) was 104 % of control.
In the case of `COc1cccc2c1C(=O)c1c(O)c3c(c(O)c1C2=O)CC(O)(C(C)=O)CC3OC1CC(N)C(C(C)O)O1` (configuration not stated), the T/C (dose: 2.25 mg/kg/injection, schedule: Q04DX003 (ip), vehicle: distilled water + Tween-80) is reported as 100 % of control, the T/C (dose: 4.5 mg/kg/injection, schedule: Q04DX003 (ip), vehicle: distilled water + Tween-80) is reported as 99 % of control and the T/C (dose: 9.0 mg/kg/injection, schedule: Q04DX003 (ip), vehicle: distilled water + Tween-80) is reported as 110 % of control. The T/C (dose: 18.0 mg/kg/injection, schedule: Q04DX003 (ip), vehicle: distilled water + Tween-80) was 101 % of control and the T/C (dose: 36.0 mg/kg/injection, schedule: Q04DX003 (ip), vehicle: distilled water + Tween-80) was 110 % of control.
For `OCC1CCC(O)C=C2CCCC21` (configuration not stated), the T/C (dose: 60.0 mg/kg/injection, schedule: Q01DX005 (ip), vehicle: Klucel (hydroxypropylcellulose) (HPC)) was 94 % of control, the T/C (dose: 120.0 mg/kg/injection, schedule: Q01DX005 (ip), vehicle: Klucel (hydroxypropylcellulose) (HPC)) was 103 % of control and the T/C (dose: 240.0 mg/kg/injection, schedule: Q01DX005 (ip), vehicle: Klucel (hydroxypropylcellulose) (HPC)) was 105 % of control.
With `CC(C)S.[Cu+2]` the T/C (dose: 6.25 mg/kg/injection, schedule: Q01DX009 (ip), vehicle: saline with Tween-80) was 114 % of control, the T/C (dose: 12.5 mg/kg/injection, schedule: Q01DX009 (ip), vehicle: saline with Tween-80) was 97 % of control and the T/C (dose: 25.0 mg/kg/injection, schedule: Q01DX009 (ip), vehicle: saline with Tween-80) was 109 % of control.
In the case of `CSc1cccc(NC(=O)OCCOc2ccc(Cl)cc2)c1`, the T/C [10] is reported as 102 % of control, the T/C [11] is reported as 100 % of control and the T/C [12] is reported as 92 % of control.
With `O=C(/C=C/C=C/c1ccccc1)CCc1ccccc1` the T/C (dose: 25.0 mg/kg/injection, schedule: Q01DX005 (ip), vehicle: Klucel (hydroxypropylcellulose) (HPC)) was 95 % of control, the T/C (dose: 50.0 mg/kg/injection, schedule: Q01DX005 (ip), vehicle: Klucel (hydroxypropylcellulose) (HPC)) was 101 % of control and the T/C (dose: 100.0 mg/kg/injection, schedule: Q01DX005 (ip), vehicle: Klucel (hydroxypropylcellulose) (HPC)) was 100 % of control. For the same compound, the T/C (dose: 200.0 mg/kg/injection, schedule: Q01DX005 (ip), vehicle: Klucel (hydroxypropylcellulose) (HPC)) was 92 % of control.
With `CC(=O)OC1COC(Nc2[nH]c(=O)n(C)c(=O)c2C(=O)CCl)C(OC(C)=O)C1OC(C)=O` (configuration not stated) the T/C [8] was 104 % of control, the T/C (dose: 100.0 mg/kg/injection, schedule: Q01DX005 (ip), vehicle: saline with Tween-80) was 96 % of control and the T/C [9] was 93 % of control.
